Entries after “also recorded” stand apart in the source; their conditions may differ.
Columns and labels:
Rat Müller cells (rMC-1) = assay: TNFalpha and cleaved caspase 3 ELISA in Müller cells cultured in high glucose; assay type: cell-based
Experimental: Human retinal endothelial cells (HREC) were purchased from Cell Systems (Kirkland, Wash.) and grown in either basal (5 mM glucose) or growth (25 mM glucose) media. Both media is supplemented with 10% FBS and antibiotics. The day prior to experiments, cells are serum-starved for 18-24 hours. Rat Müller cells (rMC-1) were grown in DMEM medium with 5 mM glucose or 25 mM glucose. Media was supplemented with 10% FBS and antibiotics. Cells were serum starved prior to all experiments for 18-24 hours.
Human retinal endothelial cells (HREC) and rat Muller cells (rMC-1) in both glucose conditions were treated with Compound 2 at doses of 10 nM, 50 nM, 100 nM, 1 μM, and 10 μM of Compound 2. Cells of each type were grown in medium containing L-glucose to control for changes in osmolarity. 10 μM isoproterenol was also used for each condition as a positive control. Müller cells were treated for 1 hour and 24 hours, while HREC were treated for 30 and 60 minutes.
Following treatment, cells were collected into lysis buffer containing protease and phosphatase inhibitors. ELISA analyses for TNFalpha, cleaved caspase 3, and PKA were done according to manufacturers instructions. Data is compared against non-treated cells and cells at the various doses. A Kruskal-Wallis test is done, with a Dunn's test for secondary analyses. […] The dose that decreases TNFalpha and caspase 3 levels also increases PKA activity.

[1] = test system: retinal capillaries of diabetic rats; assay: Quantitation of acellular (degenerate) capillaries in trypsin-digested retinal vasculature; assay type: in vivo, rat; conditions: 1 mM eye drops, 8 months of diabetes, hydrochloride
Experimental: For the acellular capillary counts, retinas from an eye of control, diabetic, and diabetic+2 were used. Eyes were enucleated and placed into 10% buffered formalin for 5 days. The retina was dissected in 3% crude trypsin solution (Difco Bacto Trypsin 250, Detroit, Mich.) containing 0.2 M sodium fluoride at 37 C for 2 hours (5). The neural retina was gently brushed away and the remaining retinal vascular tree was dried onto a glass slide. Once the isolated retinal vascular tree was dried onto the glass slide, the slide was stained with hematoxylin-periodic acid-Schiff. Degenerate (acellular) capillaries were counted in mid-retina in six to seven fields evenly spaced around the retina. Degenerate capillaries were identified as capillary-sized tubes having no nuclei anywhere along their length. Degenerate capillaries were counted only if their average diameter was at least 20% of that found in surrounding healthy capillaries (6-7).

[2] = Vitreous humor levels of Compound 2 after topical administration to rats; assay type: in vivo; conditions: rat, 10 mg/kg
Experimental: For data analyses B/PK parameters were derived from the obtained plasma, vitreous humor, urine and feces concentration data by standard non-compartmental analysis. Terminal half-life was determined as the ratio of ln 2 divided by λz, the negative of the slope of the linear regression of the natural log concentration vs. time profile during the terminal phase. Systemic and ocular exposure was determined as plasma or ocular area under the concentration-time curve (AUC) using the trapezoidal rule. Compound 2 concentration determination and metabolite profiling is conducted using a validated LC/MS/MS assay based on the methodology described (14-15). The LC-MS/MS system comprises a Shimadzu HPLC system (Kyoto, Japan), API-4000 Q Trap tandem mass spectrometer (Foster City, Calif., USA) equipped with a turbo ion-spray and a HTC-PAL autosampler (Leap Technologies, Carrboro, N.C., USA).

[3] = Müller cells in high glucose, 50 nM

COc1cc(CCNC[C@H](O)c2ccc(O)c(O)c2)cc(OC)c1OC.Cl (single isomer, unassigned) [Compound 2, 4-[1-hydroxy-2-(1-ethylamino-3-,4-,5-trimethoxyphenyl)ethyl]benzene-1,2-diol hydrochloride]
reduction of TNFalpha levels compared to not-treated cells (Rat Müller cells (rMC-1); [3]): 19%
reduction of caspase 3 compared to not-treated cells (Rat Müller cells (rMC-1); [3]): 55%
TNFalpha levels, in words (Rat Müller cells (rMC-1); Müller cells in high glucose, 50 nM, vs non-treated): significantly reduced
cleaved caspase 3 levels, in words (Rat Müller cells (rMC-1); Müller cells in high glucose, 50 nM, vs non-treated, hydrochloride): significantly decreased caspase 3 levels in Müller cells at the 24-hour time point; also recorded: significantly reduced levels of cleaved caspase 3
dose for blockade of apoptosis and TNFalpha activity compared with isoproterenol (Rat Müller cells (rMC-1); Müller cells, 50 nM Compound 2 vs. 10 μM isoproterenol): significantly lower dose
numbers of degenerate capillaries [1]: significantly reduced numbers of degenerate capillaries; also recorded: significantly reduce numbers of degenerate capillaries to levels similar to controls
concentration in the vitreous humor within 1 hour [2]: approximately 8 ug/ml
time by which all detectable levels in the vitreous humor are gone [2]: ≤ 2 h
time of peak concentration in the vitreous humor [2]: < 1 h

Source: patent US20120329879A1, “BETA-ADRENERGIC RECEPTOR AGONISTS AND USES THEREOF” (THE UNIVERSITY OF TENNESSEE RESEARCH FOUNDATION, priority 2010, published 2012)
